Reference: patent US11345694B2, “Antibacterial compounds” (DISCUVA LTD., priority 2017, dated 2022)
pIC50: −log10 of the molar value. Converted amounts (≈) assume the structure as drawn.

Key:
[1] = system: E. coli NCTC 13441 (UPEC); test: MIC broth microdilution; assay type: cell-based, Escherichia coli; details: Escherichia coli, NCTC13441
Description: (§1) Minimum Inhibitory Concentrations (MICs) versus planktonic bacteria are determined by the broth microdilution procedure according to the guidelines of the Clinical and Laboratory Standards Institute (Clinical and Laboratory Standards Institute. Methods for Dilution Antimicrobial Susceptibility Tests for Bacteria That Grow Aerobically; Approved Standard-tenth Edition. CLSI document M07-A10, 2015). The broth dilution method involves a two-fold serial dilution of compounds in 96-well microtitre plates, giving a final concentration range of 0.39-200 μM and a maximum final concentration of 2% DMSO. The bacterial strains tested include Escherichia coli K12 (EC), E. coli NCTC 13441 (UPEC), Staphylococcus aureus ATCC 35556 (SA), Acinetobacter baumannii ATCC 17978 (AB), Pseudomonas aeruginosa ATCC 33359 (PA), Enterobacter cloacae DSM 30054 (Ed), Serratia marcescens SL1344 (Sm), Salmonella typhimurium XNAA5 (St), Klebsiella pneumoniae ATCC 10031 (KP2), K. pneumoniae NCTC 13438 (KP1), K. pneumoniae ATCC 700603 (KP3), Klebsiella pneumoniae ATCC 51504 (KP4), K. pneumoniae H154680676 (KP5), K. pneumoniae H154020667 (KP6), K. pneumoniae H154640784 (KP7), K. pneumoniae H154600588 (KP8), K. pneumoniae H154300688 (KP9), K. pneumoniae H151440671 (KP10). Strains are grown in cation-adjusted Müller-Hinton broth or on Luria Bertoni agar at 37° C. in an ambient atmosphere. The MIC is determined as the lowest concentration of compound that inhibits growth following a 20-24 hour incubation period.

[2] = system: Acinetobacter baumannii ATCC 17978 (AB); test: MIC broth microdilution; assay type: cell-based; details: ATCC17978
Description: as §1

[3] = system: Escherichia coli K12 (EC); test: MIC broth microdilution; assay type: cell-based
Description: as §1

[4] = system: Klebsiella pneumoniae ATCC 10031 (KP2); test: MIC broth microdilution; assay type: cell-based; details: ATCC10031
Description: as §1

[5] = system: Pseudomonas aeruginosa ATCC 33359 (PA); test: MIC broth microdilution; assay type: cell-based; details: ATCC33359
Description: as §1

[6] = system: Staphylococcus aureus ATCC 35556 (SA); test: MIC broth microdilution; assay type: cell-based; details: ATCC35556
Description: as §1

[7] = system: K. pneumoniae NCTC 13438 (KP1); test: MIC broth microdilution; assay type: cell-based, Klebsiella pneumoniae; details: Klebsiella pneumoniae, NCTC13438
Description: as §1

[8] = system: human hepatocarcinoma cell line ATCC HB-8065 (HepG2); test: Human cell viability (CellTiter-Glo); assay type: cell-based; details: Homo sapiens; HepG2 cells, 24 h incubation, CellTiter-Glo luminescence, 0.2-100 μM; read-out: IC50 values against the HepG2 cell line
Description: Compounds are assessed for potential non-specific cytotoxic effects against the human hepatocarcinoma cell line ATCC HB-8065 (HepG2). HepG2 cells are seeded at 20,000 cells/well in 96-well microtitre plates in minimal essential medium (MEM) supplemented with a final concentration of 10% FBS. After 24 h, compound dilutions are prepared in MEM supplemented with a final concentration of 1% FBS, and added to the cells. Compounds are tested in two-fold serial dilutions over a final concentration range of 0.2-100 μM in a final DMSO concentration of 1% vol/vol. Thioridazine is used as a positive control. Cells are incubated with compound at 37° C. and 5% CO2 for a further 24 h, after which time the CellTiter-Glo reagent (Promega) is added. Luminescence is measured on a Perkin Elmer Envision plate reader. Data are analysed using a 4 parameter logistic regression to determine the concentration of compound that inhibits cell viability by fifty percent (IC50).

SMILES	MIC [1]	MIC [2]	MIC [3]	MIC [4]	MIC [5]	MIC [6]	MIC [7]	pIC50 [8]
Cc1cc(-c2nc(N)[nH]c2-c2ccc3c(c2)N(CCOCCO)C(=O)CO3)ccn1 [Example 70, 6-(2-Amino-4-(2-methylpyridin-4-yl)-1H-imidazol-5-yl)-4-(2-(2-hydroxyethoxy)ethyl)-2H-benzo[b][1,4]oxazin-3(4H)-one]	1 to 10 µM (≈ 0.409 to 4.09 µg/mL)	> 100 µM	1 to 10 µM (≈ 0.409 to 4.09 µg/mL)	≤ 1 µM	> 100 µM	> 100 µM	10 to 100 µM (≈ 4.09 to 40.9 µg/mL)	
Cc1cc(-c2[nH]c(N)nc2-c2ccc(OCC#N)cc2)ccn1 [Example 35, 2-(4-(2-Amino-5-(2-methylpyridin-4-yl)-1H-imidazol-4-yl)phenoxy)acetonitrile]	1 to 10 µM (≈ 0.305 to 3.05 µg/mL)	> 100 µM	1 to 10 µM (≈ 0.305 to 3.05 µg/mL)	≤ 1 µM	> 100 µM	> 100 µM	10 to 100 µM (≈ 3.05 to 30.5 µg/mL)	< 4.00
Cc1cc(-c2[nH]c(N)nc2-c2ccc3c(c2)N(CCO)C(=O)CO3)ccn1 [Example 66, 6-(2-Amino-4-(2-methylpyridin-4-yl)-1H-imidazol-5-yl)-4-(2-hydroxyethyl)-2H-benzo[b][1,4]oxazin-3(4H)-one]	1 to 10 µM (≈ 0.365 to 3.65 µg/mL)	> 100 µM	1 to 10 µM (≈ 0.365 to 3.65 µg/mL)	≤ 1 µM	> 100 µM	> 100 µM	10 to 100 µM (≈ 3.65 to 36.5 µg/mL)	< 4.00
COc1ccc(-c2[nH]c(N)nc2-c2ccnc(C)c2)cc1F [Example 11, 5-(3-Fluoro-4-methoxyphenyl)-4-(2-methylpyridin-4-yl)-1H-imidazol-2-amine]	1 to 10 µM (≈ 0.298 to 2.98 µg/mL)	> 100 µM	1 to 10 µM (≈ 0.298 to 2.98 µg/mL)	≤ 1 µM	> 100 µM	> 100 µM	10 to 100 µM (≈ 2.98 to 29.8 µg/mL)	< 4.00
Nc1nc(-c2ccc3c(c2)NCCO3)c(-c2ccncc2)[nH]1 [Example 39, 4-(3,4-Dihydro-2H-benzo[b][1,4]oxazin-6-yl)-5-(pyridin-4-yl)-1H-imidazol-2-amine]	≤ 1 µM	> 100 µM	≤ 1 µM	≤ 1 µM	> 100 µM	> 100 µM	10 to 100 µM (≈ 2.93 to 29.3 µg/mL)	< 4.00
Nc1nc(-c2ccc3c(c2)NCCO3)c(-c2ccnc(F)c2)[nH]1 [Example 47, 4-(3,4-Dihydro-2H-benzo[b][1,4]oxazin-6-yl)-5-(2-fluoropyridin-4-yl)-1H-imidazol-2-amine]	1 to 10 µM (≈ 0.311 to 3.11 µg/mL)	> 100 µM	1 to 10 µM (≈ 0.311 to 3.11 µg/mL)	≤ 1 µM	> 100 µM	> 100 µM	10 to 100 µM (≈ 3.11 to 31.1 µg/mL)	< 4.00
Cc1cc(-c2[nH]c(N)nc2-c2ccc3c(c2)N(C2CCCC2)C(=O)CO3)ccn1 [Example 69, 6-(2-Amino-4-(2-methylpyridin-4-yl)-1H-imidazol-5-yl)-4-cyclopentyl-2H-benzo[b][1,4]oxazin-3(4H)-one]	1 to 10 µM (≈ 0.389 to 3.89 µg/mL)	> 100 µM	1 to 10 µM (≈ 0.389 to 3.89 µg/mL)	≤ 1 µM	> 100 µM	> 100 µM	10 to 100 µM (≈ 3.89 to 38.9 µg/mL)	
Cc1cc(-c2[nH]c(N)nc2-c2ccc3c(c2)N(CC2CC2)C(=O)CO3)ccn1 [Example 67, 6-(2-Amino-4-(2-methylpyridin-4-yl)-1H-imidazol-5-yl)-4-(cyclopropylmethyl)-2H-benzo[b][1,4]oxazin-3(4H)-one]	1 to 10 µM (≈ 0.375 to 3.75 µg/mL)	> 100 µM	1 to 10 µM (≈ 0.375 to 3.75 µg/mL)	≤ 1 µM	> 100 µM	> 100 µM	10 to 100 µM (≈ 3.75 to 37.5 µg/mL)	
Nc1nc(-c2ccncn2)c(-c2ccc3c(c2)OCCO3)[nH]1 [Example 30]	10 to 100 µM (≈ 2.95 to 29.5 µg/mL)	> 100 µM	10 to 100 µM (≈ 2.95 to 29.5 µg/mL)	1 to 10 µM (≈ 0.295 to 2.95 µg/mL)	> 100 µM	> 100 µM	> 100 µM	
Nc1nc(-c2ccc3c(c2)OCCO3)c(-c2cccnc2)[nH]1 [Example 22, 4-(2,3-Dihydrobenzo[b][1,4]dioxin-6-yl)-5-(pyridin-3-yl)-1H-imidazol-2-amine]	> 100 µM	> 100 µM	> 100 µM	1 to 10 µM (≈ 0.294 to 2.94 µg/mL)	> 100 µM	> 100 µM	> 100 µM	
Cc1cc(-c2[nH]c(N)nc2-c2ccc3c(c2)N(C(C)C)C(=O)CO3)ccn1 [Example 68, 6-(2-Amino-4-(2-methylpyridin-4-yl)-1H-imidazol-5-yl)-4-isopropyl-2H-benzo[b][1,4]oxazin-3(4H)-one]	1 to 10 µM (≈ 0.363 to 3.63 µg/mL)	> 100 µM	1 to 10 µM (≈ 0.363 to 3.63 µg/mL)	≤ 1 µM	> 100 µM	> 100 µM	10 to 100 µM (≈ 3.63 to 36.3 µg/mL)	
Cc1cc(-c2[nH]c(N)nc2-c2ccc3c(c2)N(CCOCCO)CCO3)ccn1 [Example 95, 2-(2-(6-(2-Amino-5-(2-methylpyridin-4-yl)-1H-imidazol-4-y1)-2,3-dihydro-4H-benzo[b][1,4]oxazin-4-yl)ethoxy)ethan-1-ol]	1 to 10 µM (≈ 0.395 to 3.95 µg/mL)	> 100 µM	1 to 10 µM (≈ 0.395 to 3.95 µg/mL)	≤ 1 µM	> 100 µM	> 100 µM	10 to 100 µM (≈ 3.95 to 39.5 µg/mL)	

Further lines, results first:

MIC [1]	MIC [2]	MIC [3]	MIC [4]	MIC [5]	MIC [6]	MIC [7]	pIC50 [8]	SMILES
1 to 10 µM (≈ 0.328 to 3.28 µg/mL)	> 100 µM	1 to 10 µM (≈ 0.328 to 3.28 µg/mL)	≤ 1 µM	> 100 µM	> 100 µM	> 100 µM	< 4.00	Cc1cc(-c2[nH]c(Cl)nc2-c2ccc3c(c2)OCCO3)ccn1 [Example 83, 4-(2-Chloro-4-(2,3-dihydrobenzo[b][1,4]dioxin-6-yl)-1H-imidazol-5-yl)-2-methylpyridine]
> 100 µM	> 100 µM	> 100 µM	> 100 µM	> 100 µM	> 100 µM	> 100 µM		Cc1cc(-c2c(-c3ccc4c(c3)OCCO4)nc(N)n2C)ccn1 [Example 73, 4-(2,3-dihydrobenzo[b][1,4]dioxin-6-yl)-1-methyl-5-(2-methylpyridin-4-yl)-1H-imidazol-2-amine]
1 to 10 µM (≈ 0.335 to 3.35 µg/mL)	> 100 µM	10 to 100 µM (≈ 3.35 to 33.5 µg/mL)	1 to 10 µM (≈ 0.335 to 3.35 µg/mL)	> 100 µM	> 100 µM	> 100 µM		Cc1cc(-c2[nH]c(N(C)C)nc2-c2ccc3c(c2)NCCO3)ccn1 [Example 79, 4-(3,4-Dihydro-2H-benzo[b][1,4]oxazin-6-yl)-N,N-dimethyl-5-(2-methylpyridin-4-yl)-1H-imidazol-2-amine]
> 100 µM	> 100 µM	> 100 µM	1 to 10 µM (≈ 0.35 to 3.5 µg/mL)	> 100 µM	> 100 µM	> 100 µM		CC(=O)Nc1nc(-c2ccc3c(c2)OCCO3)c(-c2ccnc(C)c2)[nH]1 [Example 72, N-(4-(2,3-Dihydrobenzo[b][1,4]dioxin-6-yl)-5-(2-methylpyridin-4-yl)-1H-imidazol-2-yl)acetamide]
10 to 100 µM (≈ 3.09 to 30.9 µg/mL)	> 100 µM	10 to 100 µM (≈ 3.09 to 30.9 µg/mL)	≤ 1 µM	> 100 µM	> 100 µM	> 100 µM		Cc1cc(-c2[nH]c(=O)[nH]c2-c2ccc3c(c2)OCCO3)ccn1 [Example 82, 4-(2,3-Dihydrobenzo[b][1,4]dioxin-6-yl)-5-(2-methylpyridin-4-yl)-1,3-dihydro-2H-imidazol-2-one]
1 to 10 µM (≈ 0.321 to 3.21 µg/mL)	> 100 µM	1 to 10 µM (≈ 0.321 to 3.21 µg/mL)	≤ 1 µM	> 100 µM	> 100 µM	10 to 100 µM (≈ 3.21 to 32.1 µg/mL)		CNc1nc(-c2ccc3c(c2)NCCO3)c(-c2ccnc(C)c2)[nH]1 [Example 78, 4-(3,4-Dihydro-2H-benzo[b][1,4]oxazin-6-yl)-N-methyl-5-(2-methylpyridin-4-yl)-1H-imidazol-2-amine]
